Measurements: ChEMBL document CHEMBL1141403, “New adamantane-based spiro 1,2,4-trioxanes orally effective against rodent and simian malaria” (J Med Chem, 2007)
The source made the active and inactive calls. The rule behind the calls is not given here.

Test system: Plasmodium cynomolgi
Assay: Antimalarial activity against Plasmodium cynomolgi infected Rhesus monkey at 20 mg/kg peroral dose after 5 days
Type: functional
Conditions: route oral

Structure (SMILES) | Activity
C=C(c1ccc2c(c1)Cc1ccccc1-2)C1COC2(OO1)C1CC3CC(C1)CC2C3 (stereo not drawn) | 100%

Test system: Plasmodium cynomolgi
Assay: Antimalarial activity against Plasmodium cynomolgi infected Rhesus monkey at 10 mg/kg peroral dose over 4 days
Type: functional
Conditions: route oral

Structure (SMILES) | Activity
C=C(c1ccc2c(c1)Cc1ccccc1-2)C1COC2(OO1)C1CC3CC(C1)CC2C3 (stereo not drawn) | 100%

Test system: Mus musculus
Assay: Survival of Swiss mice (Mus musculus) infected with Plasmodium yoelii nigeriensis at 96 mg/kg, intramuscular after 28 days
Type: functional, organism-based
Parameters: dose 96 mg/kg
Conditions: not given

Structure (SMILES) | Activity
C=C(c1ccc2ccccc2c1)C1COC2(OO1)C1CC3CC(C1)CC2C3 (stereo not drawn) | inactive
C=C(c1cccc2ccccc12)C1COC2(OO1)C1CC3CC(C1)CC2C3 (stereo not drawn) | inactive
C=C(C1COC2(CCCCC2)OO1)C12CC3CC(CC(C3)C1)C2 (stereo not drawn) | inactive
C=C(C1COC2(OO1)C1CC3CC(C1)CC2C3)C12CC3CC(CC(C3)C1)C2 (stereo not drawn) | inactive
C=C(c1ccc2ccc3ccccc3c2c1)C1COC2(OO1)C1CC3CC(C1)CC2C3 (stereo not drawn) | inactive
C=C(C1COC2(CCCC2)OO1)C12CC3CC(CC(C3)C1)C2 (stereo not drawn) | inactive
C=C(c1ccccc1)C1COC2(OO1)C1CC3CC(C1)CC2C3 (stereo not drawn) | inactive

Test system: Plasmodium yoelii nigeriensis
Assay: Antimalarial activity against Plasmodium yoelii nigeriensis infected Swiss mice (Mus musculus) at 48 mg/kg peroral dose over 4 days
Type: functional
Conditions: route oral

Structure (SMILES) | Activity
CCO[C@H]1O[C@@H]2O[C@@]3(C)CC[C@H]4[C@H](C)CC[C@@H]([C@H]1C)[C@@]24OO3 [ARTEMOTIL] | 100%
C=C(c1ccc2c(c1)CCCC2)C1COC2(OO1)C1CC3CC(C1)CC2C3 (stereo not drawn) | 100%
C[C@H]1[C@H](OC(=O)CCC(=O)O)O[C@@H]2O[C@@]3(C)CC[C@H]4[C@H](C)CC[C@@H]1[C@@]24OO3 [ARTESUNATE] | 100%
C=C(c1ccc2c(ccc3ccccc32)c1)C1COC2(OO1)C1CC3CC(C1)CC2C3 (stereo not drawn) | 100%
C=C(c1ccc2c(c1)Cc1ccccc1-2)C1COC2(OO1)C1CC3CC(C1)CC2C3 (stereo not drawn) | 100%
C=C(c1ccc2ccccc2c1)C1COC2(OO1)C1CC3CC(C1)CC2C3 (stereo not drawn) | 100%
C=C(c1cccc2ccccc12)C1COC2(OO1)C1CC3CC(C1)CC2C3 (stereo not drawn) | 100%
C=C(c1ccc2ccc3ccccc3c2c1)C1COC2(OO1)C1CC3CC(C1)CC2C3 (stereo not drawn) | 100%

Test system: Plasmodium yoelii nigeriensis
Assay: Antimalarial activity against Plasmodium yoelii nigeriensis infected Swiss mice (Mus musculus) at 24 mg/kg peroral dose over 4 days
Type: functional
Conditions: route oral

Structure (SMILES) | Activity
CCO[C@H]1O[C@@H]2O[C@@]3(C)CC[C@H]4[C@H](C)CC[C@@H]([C@H]1C)[C@@]24OO3 [ARTEMOTIL] | 100%
C[C@H]1[C@H](OC(=O)CCC(=O)O)O[C@@H]2O[C@@]3(C)CC[C@H]4[C@H](C)CC[C@@H]1[C@@]24OO3 [ARTESUNATE] | 100%
C=C(c1ccc2c(c1)Cc1ccccc1-2)C1COC2(OO1)C1CC3CC(C1)CC2C3 (stereo not drawn) | 100%

Test system: Plasmodium yoelii nigeriensis
Assay: Antimalarial activity against Plasmodium yoelii nigeriensis infected Swiss mice (Mus musculus) at 96 mg/kg intramuscular dose over 4 days
Type: functional
Conditions: not given

Structure (SMILES) | Activity
C=C(c1ccc2c(c1)CCCC2)C1COC2(OO1)C1CC3CC(C1)CC2C3 (stereo not drawn) | 100%
C=C(c1ccc2c(ccc3ccccc32)c1)C1COC2(OO1)C1CC3CC(C1)CC2C3 (stereo not drawn) | 100%
C=C(c1ccc2c(c1)Cc1ccccc1-2)C1COC2(OO1)C1CC3CC(C1)CC2C3 (stereo not drawn) | 100%
C=C(c1ccc2ccccc2c1)C1COC2(OO1)C1CC3CC(C1)CC2C3 (stereo not drawn) | 71%
C=C(c1cccc2ccccc12)C1COC2(OO1)C1CC3CC(C1)CC2C3 (stereo not drawn) | 87%
C=C(C1COC2(OO1)C1CC3CC(C1)CC2C3)C12CC3CC(CC(C3)C1)C2 (stereo not drawn) | 14%
C=C(c1ccc2ccc3ccccc3c2c1)C1COC2(OO1)C1CC3CC(C1)CC2C3 (stereo not drawn) | 69%
C=C(C1COC2(CCCC2)OO1)C12CC3CC(CC(C3)C1)C2 (stereo not drawn) | 38%
C=C(c1ccccc1)C1COC2(OO1)C1CC3CC(C1)CC2C3 (stereo not drawn) | 97%

Test system: Mus musculus
Assay: Survival of Swiss mice (Mus musculus) infected with Plasmodium yoelii nigeriensis at 96 mg/kg, peroral after 28 days
Type: functional, organism-based
Parameters: dose 96 mg/kg
Conditions: not given

Structure (SMILES) | Activity
C=C(c1ccc2c(c1)CCCC2)C1COC2(OO1)C1CC3CC(C1)CC2C3 (stereo not drawn) | Active
C=C(c1ccc2c(c1)Cc1ccccc1-2)C1COC2(OO1)C1CC3CC(C1)CC2C3 (stereo not drawn) | Active
C=C(c1cccc2ccccc12)C1COC2(OO1)C1CC3CC(C1)CC2C3 (stereo not drawn) | Active
C=C(C1COC2(CCCCC2)OO1)C12CC3CC(CC(C3)C1)C2 (stereo not drawn) | inactive
C=C(C1COC2(OO1)C1CC3CC(C1)CC2C3)C12CC3CC(CC(C3)C1)C2 (stereo not drawn) | inactive
C=C(c1ccc2ccc3ccccc3c2c1)C1COC2(OO1)C1CC3CC(C1)CC2C3 (stereo not drawn) | Active
C=C(C1COC2(CCCC2)OO1)C12CC3CC(CC(C3)C1)C2 (stereo not drawn) | inactive
C=C(c1ccccc1)C1COC2(OO1)C1CC3CC(C1)CC2C3 (stereo not drawn) | inactive

Test system: Mus musculus
Assay: Survival of Swiss mice (Mus musculus) infected with Plasmodium yoelii nigeriensis at 48 mg/kg, peroral after 28 days
Type: functional, organism-based
Parameters: dose 48 mg/kg
Conditions: not given

Structure (SMILES) | Activity
CCO[C@H]1O[C@@H]2O[C@@]3(C)CC[C@H]4[C@H](C)CC[C@@H]([C@H]1C)[C@@]24OO3 [ARTEMOTIL] | Active
C[C@H]1[C@H](OC(=O)CCC(=O)O)O[C@@H]2O[C@@]3(C)CC[C@H]4[C@H](C)CC[C@@H]1[C@@]24OO3 [ARTESUNATE] | Active
C=C(c1ccc2c(c1)Cc1ccccc1-2)C1COC2(OO1)C1CC3CC(C1)CC2C3 (stereo not drawn) | Active

Test system: Plasmodium yoelii nigeriensis
Assay: Antimalarial activity at day 4 against Plasmodium yoelii nigeriensis infected in Swiss mice (Mus musculus) at 96 mg/kg peroral dose
Type: functional
Conditions: route oral

Structure (SMILES) | Activity
C=C(c1ccc2c(c1)CCCC2)C1COC2(OO1)C1CC3CC(C1)CC2C3 (stereo not drawn) | 100%
C=C(c1ccc2c(ccc3ccccc32)c1)C1COC2(OO1)C1CC3CC(C1)CC2C3 (stereo not drawn) | 100%
C=C(c1ccc2c(c1)Cc1ccccc1-2)C1COC2(OO1)C1CC3CC(C1)CC2C3 (stereo not drawn) | 100%
C=C(c1ccc2ccccc2c1)C1COC2(OO1)C1CC3CC(C1)CC2C3 (stereo not drawn) | 100%
C=C(c1cccc2ccccc12)C1COC2(OO1)C1CC3CC(C1)CC2C3 (stereo not drawn) | 100%
C=C(C1COC2(CCCCC2)OO1)C12CC3CC(CC(C3)C1)C2 (stereo not drawn) | 52%
C=C(C1COC2(OO1)C1CC3CC(C1)CC2C3)C12CC3CC(CC(C3)C1)C2 (stereo not drawn) | 70%
C=C(c1ccc2ccc3ccccc3c2c1)C1COC2(OO1)C1CC3CC(C1)CC2C3 (stereo not drawn) | 100%
C=C(C1COC2(CCCC2)OO1)C12CC3CC(CC(C3)C1)C2 (stereo not drawn) | 57%
C=C(c1ccccc1)C1COC2(OO1)C1CC3CC(C1)CC2C3 (stereo not drawn) | 99%

Test system: not listed separately
Assay: Partition coefficient, log P of the compound
Type: physicochemical
Conditions: octanol/water

Structure (SMILES) | logP
C=C(c1ccc2c(c1)CCCC2)C1COC2(OO1)C1CC3CC(C1)CC2C3 (stereo not drawn) | 5.96
C[C@H]1[C@H](OC(=O)CCC(=O)O)O[C@@H]2O[C@@]3(C)CC[C@H]4[C@H](C)CC[C@@H]1[C@@]24OO3 [ARTESUNATE] | 3.04
C=C(c1ccc2c(ccc3ccccc32)c1)C1COC2(OO1)C1CC3CC(C1)CC2C3 (stereo not drawn) | 6.65
C=C(c1ccc2c(c1)Cc1ccccc1-2)C1COC2(OO1)C1CC3CC(C1)CC2C3 (stereo not drawn) | 6.39
C=C(c1ccc2ccccc2c1)C1COC2(OO1)C1CC3CC(C1)CC2C3 (stereo not drawn) | 5.65
C=C(c1cccc2ccccc12)C1COC2(OO1)C1CC3CC(C1)CC2C3 (stereo not drawn) | 5.65
C=C(C1COC2(CCCCC2)OO1)C12CC3CC(CC(C3)C1)C2 (stereo not drawn) | 4.79
C=C(C1COC2(OO1)C1CC3CC(C1)CC2C3)C12CC3CC(CC(C3)C1)C2 (stereo not drawn) | 5.43
C=C(c1ccc2ccc3ccccc3c2c1)C1COC2(OO1)C1CC3CC(C1)CC2C3 (stereo not drawn) | 6.65
C=C(C1COC2(CCCC2)OO1)C12CC3CC(CC(C3)C1)C2 (stereo not drawn) | 4.38
C=C(c1ccccc1)C1COC2(OO1)C1CC3CC(C1)CC2C3 (stereo not drawn) | 4.65

Test system: Mus musculus
Assay: Survival of Swiss mice (Mus musculus) infected with Plasmodium yoelii nigeriensis at 24 mg/kg, peroral after 28 days
Type: functional, organism-based
Parameters: dose 24 mg/kg
Conditions: not given

Structure (SMILES) | Activity
C[C@H]1[C@H](OC(=O)CCC(=O)O)O[C@@H]2O[C@@]3(C)CC[C@H]4[C@H](C)CC[C@@H]1[C@@]24OO3 [ARTESUNATE] | inactive

Test system: Plasmodium cynomolgi
Assay: Antimalarial activity against Plasmodium cynomolgi infected Rhesus monkey at 10 mg/kg intramuscular dose over 4 days
Type: functional, organism-based
Parameters: dose 10 mg/kg
Conditions: not given

Structure (SMILES) | Activity
C=C(c1ccc2c(c1)Cc1ccccc1-2)C1COC2(OO1)C1CC3CC(C1)CC2C3 (stereo not drawn) | inactive
